Measurements from PubChem BioAssay AID602267 (Broad Institute, 2012).
Activity calls are given as the source filed them.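 The calls were made as follows: active = signal falls with dose and the fitted half-maximal concentration is at or below twice the top valid tested dose; inconclusive = flat curve with 30 to 70% inhibition, or poor fit; inactive = wrong direction, flat within 30%, or potency beyond limit.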

These compounds were tested against Golgi-associated PDZ and coiled-coil motif-containing protein (Homo sapiens) (UniProt Q9HD26) (assay: CAL PDZ domain peptide-binding inhibitors, dose response, biochemical, fluorescence polarization, untagged CAL PDZ, cherry-pick (AID 602267)). Conditions: purified CAL PDZ, TMR-peptide fluorescence polarization, 1 h.

Row | SMILES | AC50
1 | CCOc1ccc2c(c1)C(NC(C)=O)C(=O)N2CCN1CCOCC1 (stereo not drawn) | > 100 µM (inactive)

Same assay, conditions: purified CAL PDZ, TMR-peptide fluorescence polarization, 1 h; at 50 µM (top of the series)

Row | SMILES | activity change, negative = inhibition
2 | O=C(NCc1cccs1)c1cccn2c(=O)c3sccc3nc12 | inactive
3 | CCC(C)(C)NC(=O)CSc1nc(Cc2ccccc2)nc2ccccc12 | inactive
4 | O=C(CCc1nc(-c2ccc(Cl)cc2)no1)NC1CCCCC1 | inactive
5 | Cc1cccc(C(=O)Nc2ccc(C(=O)/C=C/c3ccncc3)cc2)c1 | inactive
6 | CCCCN(CCCC)CCNC(=O)c1ccc2nc(-c3ccccc3NC(C)=O)c(=O)[nH]c2c1 | inactive
7 | O=C(O)CCCC(=O)N1N=C(c2ccccc2)CC1c1ccc2c(c1)OCO2 (stereo not drawn) | inactive
8 | COc1ccc(S(=O)(=O)N2CC(=O)Nc3ccccc32)cc1F | inactive
9 | CN1CCN(c2ccccc2NC(=O)c2ccc(N3CCCC3)c([N+](=O)[O-])c2)CC1 | inactive
10 | O=C(Nc1ccc(Cl)cc1)c1ccc(CN2CCc3ccccc3C2)cc1 | inactive
11 | O=C(NCc1cccnc1)/C(=C/c1ccc(-c2cccc(C(F)(F)F)c2)o1)NC(=O)c1ccccc1 | inactive
12 | Cc1ccc(S(=O)(=O)N2CCN(CCC#N)CC2)cc1 | inactive
13 | CO[C@H]1O[C@H](C)[C@@H](O)C[C@H]1NC(=O)OCc1ccccc1 | inactive
14 | O=C(NC1CCCCCCC1)c1cc([N+](=O)[O-])ccc1Cl | inactive
15 | CC(C)c1ccc(CNC(=O)C(=O)NCCCn2ccnc2)cc1 | inactive
16 | CC(=O)NC(Cc1ccccc1)C(C)=O (stereo not drawn) | inactive
17 | c1ccc(C(c2ccccc2)c2cccnc2)cc1 | inactive
18 | O=C(Cc1ccccc1)NN=C1CCCC1 | inactive
19 | CCOC(=O)c1ccc(NC(=S)N2CCCC(C(=O)N3CCCC3)C2)cc1 (stereo not drawn) | inactive
20 | CC(NS(=O)(=O)c1ccc(Cl)c(Cl)c1)C(=O)OCC(=O)Nc1ccc2c(c1)OCO2 (stereo not drawn) | inactive

Row | SMILES | activity change, negative = inhibition
21 | Cc1cccc(NS(=O)(=O)Cc2ccccc2)c1C | inactive
22 | Cc1ccc2cc(C#N)c(N3CCCN(S(=O)(=O)c4ccccc4)CC3)nc2c1 | inactive
23 | Cc1ccccc1CN(C)C(C)C(=O)Nc1ccccc1F (stereo not drawn) | inactive
24 | O=C(Nc1ccc([N+](=O)[O-])cc1)Nc1cnccn1 | inactive
25 | CC1CCCCC1NCC(=O)NCc1ccc(F)cc1 (stereo not drawn) | inactive
26 | CCOCCCNC(=S)N1CCN(c2nc(-c3ccccc3)cs2)CC1 | inactive
27 | O=C(NCc1ccccc1)c1cc2ccc(O)cc2oc1=O | inactive
28 | c1ccc(CNc2nc(NCc3ccccc3)c3ccccc3n2)cc1 | inactive
29 | COC(=O)CN1C(=O)N/C(=C/c2cc(Cl)c(OC)c(OC)c2)C1=O | inactive
30 | O=C(OCc1ccc(Br)cc1)c1cccnc1 | inactive
31 | Fc1ccc(-n2c(-c3ccc4ccccc4n3)n[nH]c2=S)cc1Cl | inactive
32 | N=c1c(S(=O)(=O)c2ccc(Cl)cc2)cc2c(=O)n3ccccc3nc2n1C1CCCCC1 | inactive
33 | Cc1cc(C)nc(/N=C(\N)N2CCc3ccccc32)n1 | inactive
34 | Cc1ccc(CN(C(=O)c2ccco2)C(C(=O)NC2CCCC2)c2cccnc2)cc1 (stereo not drawn) | inactive
35 | O=[N+]([O-])c1ccc(N/N=C/c2cccnc2)cc1 | inactive
36 | COc1cccc(-c2cccc(NC(=O)C3CCN(Cc4ccc(CO)o4)CC3)c2)c1 | inactive
37 | COC(=O)c1ccccc1NC(=O)n1cc(C)cn1 | inactive
38 | O=C1OC(c2ccccc2)(c2ccccc2)c2ccccc21 | inactive
